Laboratory results from article PMC9203742 (Nature Communications, 2022).
Where “and” joins values, the source holds several entries; their conditions need not be identical. Equal entries are not always repeated. Values belong to the molecule of their own block, whether it stands above or below them. Starred links: 1 amine or outer side, 2 acyl side, 3 side chain; linkers in the order of their positions; H or OH if unused. Positions of bridges follow the written chain, without caps; N, C: chain ends. Non-standard residues stand in square brackets, D forms with d. Residues, ends and D or L forms follow the SMILES beside them. X1 = CC(=O)NC(C(=O)OC(C(C)C)C(N[*:1])C(=O)[*:2])C(O)C(C)C; PhLac = O=C(O)[CH](O)Cc1ccccc1; NMeT = CN[CH](C(=O)O)[CH](C)O; NMeA = CN[CH](C)C(=O)O; NMeDha = C=C(NC)C(=O)O

Key:
[1] = molecular target: T1, mGlu1(N264H) mutant (Rattus norvegicus, UniProt P23385, N264H); assay: Fura-2 Ca2+ imaging in HEK293 cells expressing mGlu1(N264H); format: cell-based; settings: for Receptor activation (Ca2+ response, Δratio): 3 μM Pd(bpy) derivative; for Ca2+ response to Pd complex, individual cells #1-#20 (Fig.4e): single-cell values; for Effect of pre-treated inhibitor on 10 µM Pd(bpy)-induced Ca2+ responses: 10 µM LY367385, 1 µM FITM, 10 µM YM254890 or 1 µM U73122
T1 construct: expressed in transfected cells; host or cells: HEK293
T1 sequence (P23385 19-1199 N264H): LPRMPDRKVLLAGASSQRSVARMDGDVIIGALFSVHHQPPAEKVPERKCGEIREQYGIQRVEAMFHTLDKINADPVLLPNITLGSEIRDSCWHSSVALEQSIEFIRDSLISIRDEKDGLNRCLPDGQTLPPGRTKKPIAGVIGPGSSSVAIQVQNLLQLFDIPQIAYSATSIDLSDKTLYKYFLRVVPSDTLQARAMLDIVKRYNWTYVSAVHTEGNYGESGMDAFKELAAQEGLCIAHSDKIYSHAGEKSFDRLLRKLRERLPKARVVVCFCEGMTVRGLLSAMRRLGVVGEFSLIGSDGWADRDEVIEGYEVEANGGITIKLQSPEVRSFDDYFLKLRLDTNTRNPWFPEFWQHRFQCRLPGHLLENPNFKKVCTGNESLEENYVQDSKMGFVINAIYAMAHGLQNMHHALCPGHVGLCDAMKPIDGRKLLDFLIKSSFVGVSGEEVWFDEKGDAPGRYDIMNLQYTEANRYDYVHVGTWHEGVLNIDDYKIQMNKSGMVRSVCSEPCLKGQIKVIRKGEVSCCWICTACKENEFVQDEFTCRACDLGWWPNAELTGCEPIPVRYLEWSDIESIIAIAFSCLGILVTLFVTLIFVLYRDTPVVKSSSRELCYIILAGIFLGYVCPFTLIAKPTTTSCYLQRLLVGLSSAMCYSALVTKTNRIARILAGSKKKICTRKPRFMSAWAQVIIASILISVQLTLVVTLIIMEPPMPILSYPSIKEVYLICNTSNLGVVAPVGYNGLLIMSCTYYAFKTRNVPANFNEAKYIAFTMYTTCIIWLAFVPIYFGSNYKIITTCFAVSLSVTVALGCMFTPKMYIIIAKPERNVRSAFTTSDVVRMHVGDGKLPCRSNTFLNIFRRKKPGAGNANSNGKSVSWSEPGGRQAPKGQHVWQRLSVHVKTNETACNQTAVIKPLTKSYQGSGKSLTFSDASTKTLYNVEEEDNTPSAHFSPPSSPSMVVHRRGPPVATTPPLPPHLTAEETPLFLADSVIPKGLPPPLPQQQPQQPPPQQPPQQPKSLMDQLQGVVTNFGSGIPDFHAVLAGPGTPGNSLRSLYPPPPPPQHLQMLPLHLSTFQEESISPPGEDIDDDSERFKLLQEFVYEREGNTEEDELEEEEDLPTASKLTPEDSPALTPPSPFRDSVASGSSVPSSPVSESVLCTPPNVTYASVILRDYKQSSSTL

[2] = system: primary cortical neurons; assay: Fura-2 Ca2+ imaging (abnormal Ca2+ response) in cultured cortical neurons; settings: co-treated 30 µM LY367385, 1 µM FITM or 10 µM U73122
[3] = molecular target: T2, mGlu1 P58H/N264H mutant (Rattus norvegicus, UniProt P23385, N264H/P58H); assay: Fura-2 Ca2+ imaging in HEK293 cells expressing mGlu1 P58H/N264H; format: cell-based; settings: 10 μM metal ion or metal complex
T2 construct: expressed in transfected cells; host or cells: HEK293
T2 sequence (P23385 19-1199 P58H/N264H): as the sequence (P23385 19-1199 N264H) above, with P40H counted along it

[4] = molecular target: T3, mGlu1 A59H/N264H mutant (Rattus norvegicus, UniProt P23385, A59H/N264H); assay: Fura-2 Ca2+ imaging in HEK293 cells expressing mGlu1 A59H/N264H; format: cell-based; settings: 10 μM metal ion or metal complex
T3 construct: expressed in transfected cells; host or cells: HEK293
T3 sequence (P23385 19-1199 A59H/N264H): as the sequence (P23385 19-1199 N264H) above, with A41H counted along it

[5] = molecular target: T4, mGlu1 K61H/N264H mutant (Rattus norvegicus, UniProt P23385, K61H/N264H); assay: Fura-2 Ca2+ imaging in HEK293 cells expressing mGlu1 K61H/N264H; format: cell-based; settings: 10 μM metal ion or metal complex
T4 construct: expressed in transfected cells; host or cells: HEK293
T4 sequence (P23385 19-1199 K61H/N264H): as the sequence (P23385 19-1199 N264H) above, with K43H counted along it

[6] = molecular target: T5, mGlu1 P57H/N264H mutant (Rattus norvegicus, UniProt P23385, N264H/P57H); assay: Fura-2 Ca2+ imaging in HEK293 cells expressing mGlu1 P57H/N264H; format: cell-based; settings: 10 μM metal ion or metal complex
T5 construct: expressed in transfected cells; host or cells: HEK293
T5 sequence (P23385 19-1199 P57H/N264H): as the sequence (P23385 19-1199 N264H) above, with P39H counted along it

[7] = molecular target: T6, mGlu1 E60H/N264H mutant (Rattus norvegicus, UniProt P23385, E60H/N264H); assay: Fura-2 Ca2+ imaging in HEK293 cells expressing mGlu1 E60H/N264H; format: cell-based; settings: 10 μM metal ion or metal complex
T6 construct: expressed in transfected cells; host or cells: HEK293
T6 sequence (P23385 19-1199 E60H/N264H): as the sequence (P23385 19-1199 N264H) above, with E42H counted along it

Compound: OCCOCCOCc1ccnc(-c2cc(COCCOCCO)ccn2)c1.[Cl][Pd][Cl] [Pd(EG-bpy)]
Receptor activation (Ca2+ response, Δratio) [1]: weakened responses
Ca2+ response to Pd complex, individual cells #1-#20 (Fig.4e) [1]: -0.02498 and -0.009 and -0.01094 and -0.001385 and -0.02155 and -0.01075 and -0.019 and 0.05131 and 0.02474 and 0.01748 and 0.01646 and -0.03188 and 0.7968 and -0.03567 and 0.2621

Compound: OCc1ccnc(-c2cc(CO)ccn2)c1.[Cl][Pd][Cl] [Pd(OH-bpy)]
Ca2+ response, concentration dependence (Fig.4f) ([1]; 0.01 µM Pd complex): -0.02066
Ca2+ response, concentration dependence (Fig.4f) ([1]; 0.03 µM Pd complex): 0.003658
Ca2+ response, concentration dependence (Fig.4f) ([1]; 0.1 µM Pd complex): 0.0176
Ca2+ response, concentration dependence (Fig.4f) ([1]; 0.3 µM Pd complex): 0.1704
Ca2+ response, concentration dependence (Fig.4f) ([1]; 1 µM Pd complex): 0.2068
Ca2+ response, concentration dependence (Fig.4f) ([1]; 3 µM Pd complex): 0.4989
Receptor activation (Ca2+ response, Δratio) [1]: successfully activated
Ca2+ response, concentration dependence (Fig.4f) ([1]; 10 µM Pd complex): 0.5148
Ca2+ response, concentration dependence (Fig.4f) ([1]; 30 µM Pd complex): 0.5694
EC50 ([1]; HEK293 cells, Fura-2, read-out: EC50, Ca2+ response (Δratio)): 1.1 µM
Ca2+ response to Pd complex, individual cells #1-#20 (Fig.4e) [1]: 0.09363 and -0.01751 and 0.927 and 0.3494 and 0.8377 and 0.7197 and 0.003631 and 0.04434 and -0.01218 and -0.01678 and 1.414 and 0.5875 and -0.01008 and 0.646 and 0.8168 and 0.6391 and 0.4133 and 1.082 and 0.03592 and 1.1834

Compound: O=S(=O)([O-])CCCOCc1ccnc(-c2cc(COCCCS(=O)(=O)[O-])ccn2)c1.[Cl][Pd][Cl].[Na+].[Na+] [Pd(di-sulfo-bpy)]
Receptor activation (Ca2+ response, Δratio) [1]: failed to activate
Ca2+ response to Pd complex, individual cells #1-#20 (Fig.4e) [1]: 0.01072 and 0.008046 and 0.01006 and 0.04502 and 0.003731 and 0.0195 and 0.007615 and 0.1169 and -0.002485 and 0.009585 and 0.3142 and 0.02231 and 0.005731 and 0.02578 and 0.01671

Compound: COc1ccc2c(c1)CC[C@@H]1[C@@H]2CC[C@]2(C)[C@@H](NCCCCCCN3C(=O)C=CC3=O)CC[C@@H]12 [U73122, reference compound]
Effect of pre-treated inhibitor on 10 µM Pd(bpy)-induced Ca2+ responses [1]: suppressed
Effect of inhibitor on 30 µM Pd(bpy)-induced [Ca2+]i elevation [2]: suppressed by neither

Effect of pre-treated inhibitor on 10 µM Pd(bpy)-induced Ca2+ responses [1]: suppressed
Compound: C=C1C(=O)NC(C)C(=O)N(C)C(C)C(=O)NC(C(OC(=O)C(NC(C)=O)C(O)C(C)C)C(C)C)C(=O)N(C)C(C(C)OC)C(=O)OC(C)C(NC(C)=O)C(=O)OC(Cc2ccccc2)C(=O)N1C (centres unmarked) [YM-254890, reference compound] (Ac-T[PhLac][NMeDha]A[NMeA][X1][NMeT](Me); ester 1-C; configuration not given here)

Compound: [Zn+2] [Zn^2+, reference compound]
Receptor activation ([Ca2+]i change, Δratio) [3]: failed to activate
Receptor activation ([Ca2+]i change, Δratio) [4]: failed to activate
Receptor activation ([Ca2+]i change, Δratio) [5]: failed to activate
Receptor activation ([Ca2+]i change, Δratio) [6]: failed to activate
Receptor activation ([Ca2+]i change, Δratio) [7]: failed to activate
